Source: PubChem BioAssay (NCI)
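Compound exposure: 48 hours, 5 concentrations, 96-well plates. GI50: concentration for 50% inhibition of growth. TGI: concentration producing complete growth inhibition.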

Experiments:
Experiment in all cases: NCI tumour cell line growth inhibition, 48 h
MDA-MB-435 = system: MDA-MB-435
HS 578T breast = system: HS 578T breast
LOX IMVI melanoma = system: LOX IMVI melanoma
UACC-257 melanoma = system: UACC-257 melanoma
M14 melanoma = system: M14 melanoma
HCT-15 colon = system: HCT-15 colon
MDA-MB-231 breast = system: MDA-MB-231 breast
SF-295 CNS = system: SF-295 CNS
MALME-3M melanoma = system: MALME-3M melanoma
HOP-62 NSCLC = system: HOP-62 NSCLC
NCI/ADR-RES ovarian = system: NCI/ADR-RES ovarian
SNB-19 CNS = system: SNB-19 CNS
UO-31 renal = system: UO-31 renal
IGROV1 ovarian = system: IGROV1 ovarian
HL-60(TB) leukemia = system: HL-60(TB) leukemia
SN12C renal = system: SN12C renal
SW-620 colon = system: SW-620 colon
SF-268 CNS = system: SF-268 CNS
HT29 colon = system: HT29 colon
CCRF-CEM leukemia = system: CCRF-CEM leukemia
SK-MEL-2 melanoma = system: SK-MEL-2 melanoma
HOP-92 NSCLC = system: HOP-92 NSCLC
TK-10 renal = system: TK-10 renal
HCC-2998 colon = system: HCC-2998 colon
SF-539 CNS = system: SF-539 CNS
HCT-116 colon = system: HCT-116 colon
ACHN renal = system: ACHN renal
RPMI-8226 leukemia = system: RPMI-8226 leukemia
KM12 colon = system: KM12 colon
786-0 renal = system: 786-0 renal
NCI-H226 lung = system: NCI-H226 lung
CAKI-1 renal = system: CAKI-1 renal
U251 CNS = system: U251 CNS
OVCAR-4 ovarian = system: OVCAR-4 ovarian
K-562 leukemia = system: K-562 leukemia
RXF 393 renal = system: RXF 393 renal
SR leukemia = system: SR leukemia
OVCAR-5 ovarian = system: OVCAR-5 ovarian
A549 NSCLC = system: A549 NSCLC
UACC-62 melanoma = system: UACC-62 melanoma
OVCAR-8 ovarian = system: OVCAR-8 ovarian
EKVX NSCLC = system: EKVX NSCLC
T-47D breast = system: T-47D breast
DU-145 prostate = system: DU-145 prostate
NCI-H23 lung = system: NCI-H23 lung
SNB-75 CNS = system: SNB-75 CNS
COLO 205 colon = system: COLO 205 colon
BT-549 breast = system: BT-549 breast
SK-MEL-28 melanoma = system: SK-MEL-28 melanoma
NCI-H522 lung = system: NCI-H522 lung
PC-3 prostate = system: PC-3 prostate
MOLT-4 leukemia = system: MOLT-4 leukemia
SK-MEL-5 melanoma = system: SK-MEL-5 melanoma
MCF7 breast = system: MCF7 breast
NCI-H460 lung = system: NCI-H460 lung
SK-OV-3 ovarian = system: SK-OV-3 ovarian
A498 renal = system: A498 renal

Fc1ccc(-c2cc3nc(C(Cl)Cl)nc(-c4ccco4)n3n2)cc1
GI50 (MDA-MB-435): 1.54 µM | TGI (MDA-MB-435): 6.82 µM | GI50 (HS 578T breast): 1.45 µM | TGI (HS 578T breast): 4.91 µM | GI50 (LOX IMVI melanoma): > 100 µM | TGI (LOX IMVI melanoma): > 100 µM | GI50 (UACC-257 melanoma): 3.53 µM | TGI (UACC-257 melanoma): 19.6 µM | GI50 (M14 melanoma): > 100 µM | TGI (M14 melanoma): > 100 µM | GI50 (HCT-15 colon): 0.486 µM | TGI (HCT-15 colon): 16.4 µM | GI50 (MDA-MB-231 breast): 0.368 µM | TGI (MDA-MB-231 breast): 2.33 µM | GI50 (SF-295 CNS): 0.663 µM | TGI (SF-295 CNS): 4.08 µM | GI50 (MALME-3M melanoma): > 100 µM | TGI (MALME-3M melanoma): > 100 µM | GI50 (HOP-62 NSCLC): 0.504 µM | TGI (HOP-62 NSCLC): 2.84 µM | GI50 (NCI/ADR-RES ovarian): 0.562 µM | TGI (NCI/ADR-RES ovarian): 6.04 µM | GI50 (SNB-19 CNS): 0.541 µM | TGI (SNB-19 CNS): 5.81 µM | GI50 (UO-31 renal): 1.32 µM | TGI (UO-31 renal): 5.78 µM | GI50 (IGROV1 ovarian): 11.6 µM | TGI (IGROV1 ovarian): > 100 µM | GI50 (HL-60(TB) leukemia): 0.3 µM | GI50 (SN12C renal): > 100 µM | TGI (SN12C renal): > 100 µM | GI50 (SW-620 colon): 0.402 µM | TGI (SW-620 colon): 3.55 µM | GI50 (SF-268 CNS): 1.24 µM | TGI (SF-268 CNS): 8.16 µM | GI50 (HT29 colon): 0.312 µM | TGI (HT29 colon): 1.71 µM | GI50 (CCRF-CEM leukemia): > 100 µM | TGI (CCRF-CEM leukemia): > 100 µM | GI50 (SK-MEL-2 melanoma): 5.36 µM | TGI (SK-MEL-2 melanoma): 20.4 µM | GI50 (HOP-92 NSCLC): 0.541 µM | TGI (HOP-92 NSCLC): 3.37 µM | GI50 (TK-10 renal): 3.54 µM | TGI (TK-10 renal): 7.5 µM | GI50 (HCC-2998 colon): 0.4 µM | TGI (HCC-2998 colon): 1.65 µM | GI50 (SF-539 CNS): 0.832 µM | TGI (SF-539 CNS): 3.71 µM | GI50 (HCT-116 colon): 0.31 µM | TGI (HCT-116 colon): 1.1 µM | GI50 (ACHN renal): 0.296 µM | TGI (ACHN renal): 1.34 µM | GI50 (RPMI-8226 leukemia): 0.481 µM | TGI (RPMI-8226 leukemia): 4.03 µM | GI50 (KM12 colon): 0.877 µM | TGI (KM12 colon): 3.66 µM | GI50 (786-0 renal): 2.77 µM | TGI (786-0 renal): 27.5 µM | GI50 (NCI-H226 lung): > 89.5 µM | TGI (NCI-H226 lung): > 100 µM | GI50 (CAKI-1 renal): 0.948 µM | TGI (CAKI-1 renal): 4.36 µM | GI50 (U251 CNS): 0.309 µM | TGI (U251 CNS): 2.7 µM | GI50 (OVCAR-4 ovarian): 2.62 µM | TGI (OVCAR-4 ovarian): 17.5 µM | GI50 (K-562 leukemia): 1.79 µM | TGI (K-562 leukemia): > 100 µM | GI50 (RXF 393 renal): 0.413 µM | TGI (RXF 393 renal): 2.51 µM | GI50 (SR leukemia): 17.8 µM | TGI (SR leukemia): > 100 µM | GI50 (OVCAR-5 ovarian): 1.32 µM | TGI (OVCAR-5 ovarian): 6.7 µM | GI50 (A549 NSCLC): 0.77 µM | TGI (A549 NSCLC): 5.37 µM | GI50 (UACC-62 melanoma): 3.61 µM | TGI (UACC-62 melanoma): > 53.8 µM | GI50 (OVCAR-8 ovarian): 0.809 µM | TGI (OVCAR-8 ovarian): > 100 µM | GI50 (EKVX NSCLC): 1.28 µM | TGI (EKVX NSCLC): 4.86 µM | GI50 (T-47D breast): 1.01 µM | TGI (T-47D breast): 6.71 µM | GI50 (DU-145 prostate): 0.303 µM | TGI (DU-145 prostate): 0.954 µM | GI50 (NCI-H23 lung): 2.44 µM | TGI (NCI-H23 lung): > 58 µM | GI50 (SNB-75 CNS): 0.638 µM | TGI (SNB-75 CNS): 3.99 µM | GI50 (COLO 205 colon): 0.624 µM | TGI (COLO 205 colon): 2.48 µM | GI50 (BT-549 breast): 35.3 µM | TGI (BT-549 breast): > 100 µM | GI50 (SK-MEL-28 melanoma): 2.46 µM | TGI (SK-MEL-28 melanoma): 6.46 µM | GI50 (NCI-H522 lung): > 87.9 µM | TGI (NCI-H522 lung): > 100 µM | GI50 (PC-3 prostate): 0.727 µM | TGI (PC-3 prostate): 3.88 µM | GI50 (MOLT-4 leukemia): > 47.4 µM | TGI (MOLT-4 leukemia): > 100 µM | GI50 (SK-MEL-5 melanoma): > 100 µM | TGI (SK-MEL-5 melanoma): > 100 µM | GI50 (MCF7 breast): 0.273 µM | TGI (MCF7 breast): 3.24 µM | GI50 (NCI-H460 lung): 0.217 µM | TGI (NCI-H460 lung): 0.533 µM | GI50 (SK-OV-3 ovarian): 2.88 µM | TGI (SK-OV-3 ovarian): > 49.4 µM | GI50 (A498 renal): 1.21 µM | TGI (A498 renal): 2.62 µM
